For one series, the target named is T1, F508del-CFTR (Homo sapiens, UniProt P13569, DEL508-508).
T1 construct: expressed in transfected cells; host or cells: CFBE41o- cells (CFBE F508del-CFTR), puromycin-selected
The series can be described thus: CFTR activation assay: short-circuit current measurements (Ussing chamber) in CFBE cells treated 24 h with CFTR modulator(s) plus compound. The series is classed as cell-based. The note with it: for F508del-CFTR activity ('inhibition shift' induced by CFTR-172) in reference to the CFTR activity induced by Trikafta® alone (value=100): substance with R1 = [drawing 9], CFBE cells, with Trikafta®; for F508del-CFTR activity as percentage of F508del-CFTR activity in the presence of Trikafta alone (100%): CFE cells, with Trikafta. Here is the method: • FIG 1. represents the conductance measurement as a function of time for assessing the activity of F508del-CFTR in CFBE cells using the Ussing chamber as set forth in example 13. Cells are incubated for 24 hours with either Trikafta® alone or Trikafta® + a compound of formula (I) as defined herein after. Conductance is measured as a function of time. […] This is the measure which are reported in all Tables shown below. • FIG 2. The correcting effect of Trikafta® on F508del-CFTR in a pulmonary epithelial cell line derived from a F508del-CFTR CF patient was tested as set forth in example 13 herein after in the presence of increasing concentrations of compound (44) as defined herein after and compound (107) as defined herein after. Dose-response curves were built from the activation and inhibition data (see FIG. 1). 100% represents the activity of Trikafta® alone. • FIG 3. […] CFE cells were treated with Trikafta® 100%, 33%, or 11%, in the absence or presence of 1 µM of compound (107). F508del-CFTR activity was monitored as described in the Experimental section and above. Activity is reported as percentage of δF508del-CFTR activity in the presence of Trikafta® alone (100%). The fold change over the activity of Trikafta® alone is indicated in parentheses. • FIG 4. The correcting effect of further CFTR modulators than Trikafta®, i.e. Galapagos compounds as defined herein after (GLPG 222 (G1), GLPG 1837 (G2), GLPG 2451 (G3)) (1 µM each) on F508del-CFTR in a pulmonary epithelial cell line derived from a F508del-CFTR CF patient was tested as set forth in example 13 herein after in the presence of increasing concentrations of compound (107) as defined herein after. Dose-response curves were built from the activation and inhibition data (see FIG. 1). 100% represents the activity of each CFTR modulator alone.
The activity of F508del-CFTR was indeed estimated according to the method described below in example 13. This method makes use of CFBE cells, an immortalized cell line generated from bronchial epithelium of a CF patient homozygous for F508del-CFTR [Kunzelmann, K. et al., 1993. An immortalized cystic fibrosis tracheal epithelial cell line homozygous for the F508del CFTR mutation. Am. J. Respir. Cell Mol. Biol. 8, 522-529.]. Cells are exposed for 24 hours to a combination of Trikafta® and a compound of formula (I) as defined herein after to be evaluated, and the activity of F508del-CFTR is measured by conductance in a Ussing chamber. The activation is initiated by addition of Forskolin (1 µM). […] All compounds tested were evaluated in combination with Trikafta®. In most instances, compounds were tested in triplicates at 0.1, 1 and 10 µM.
Wild-type CFBE cells (containing full-length, unmutated CFTR) are used as a reference.
F508del-CFTR expressing cells used in this present study were treated with CFTR modulators 24 h prior the experiments. The following CFTR modulators were used: Vx770 (Ivacaftor) (Selleckchem, S 1144) (Selleckchem, 24, rue des Tuileries, BP684, 67460 Souffelweyersheim, France), Vx445 (Elexacaftor) (Selleckchem, SE-S8851), Vx661 (Tezacaftor) (TargetMol, HY-15448) (TargetMol, Tebu-bio, 39 rue de Houdan, BP 15, 78612 Le-Perray-en-Yvelines cedex, France). Trikafta® is the combination of 1 µM Vx770, 3 µM Vx 445 and […] Vx661.
CFBE cell line stably expressing F508del-CFTR or WT-CFTR (CFBE WT-CFTR) were grown at 37°C in 5% CO2 - 95% air and media was replaced every 2 days.

The next series addresses CDK2 (Homo sapiens, UniProt P24941). Description: Kinase inhibition, dose-response. It counts as biochemical. The note with it: > 10: no inhibition at 10 µM, the highest dose tested. Here is the method:
(§1) All compounds were additionally tested over a range of concentrations for their ability to inhibit a series of 14 kinases. IC50 values were calculated from the dose-response curves and are reported in µM. > 10, no inhibition at 10 µM, the highest dose tested (see table 6 below). [drawing 409] Table 5: CFE cells were treated with Trikafta in the presence of increasing concentrations of various compounds and their N7-methylated counterparts. Their F508del-CFTR activity is reported as percentage of F508del-CFTR activity in the presence of Trikafta alone (100%).

In the next series the target is CLK2 (Homo sapiens, UniProt P49760). The series can be described thus: Kinase inhibition, dose-response. The note with it: > 10: no inhibition at 10 µM, the highest dose tested. The series is classed as biochemical. Here is the method: as §1
The target in a further series is CK1ε (Homo sapiens, UniProt P49674). Description: Kinase inhibition, dose-response. The note with it: > 10: no inhibition at 10 µM, the highest dose tested. The series is classed as biochemical. Here is the method: as §1
Sequence of CK1ε (P49674 whole entry): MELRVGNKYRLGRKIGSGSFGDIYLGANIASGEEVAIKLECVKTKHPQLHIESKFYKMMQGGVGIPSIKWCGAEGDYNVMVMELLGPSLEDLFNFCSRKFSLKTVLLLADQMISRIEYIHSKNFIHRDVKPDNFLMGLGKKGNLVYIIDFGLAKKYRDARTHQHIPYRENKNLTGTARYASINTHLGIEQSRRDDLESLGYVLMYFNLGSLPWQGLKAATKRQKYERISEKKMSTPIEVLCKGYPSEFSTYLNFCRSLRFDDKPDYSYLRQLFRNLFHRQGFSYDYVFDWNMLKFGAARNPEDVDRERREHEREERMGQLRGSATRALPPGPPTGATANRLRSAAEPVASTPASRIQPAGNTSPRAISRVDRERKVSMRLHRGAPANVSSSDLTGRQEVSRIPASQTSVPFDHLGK
The target in the next series is CK1α1 (Homo sapiens, UniProt P48729). Description: Kinase inhibition, dose-response. The note with it: > 10: no inhibition at 10 µM, the highest dose tested. The series is classed as biochemical. As for the experimental part: as §1
The next series concerns the target CDK7 (Homo sapiens, UniProt P50613). The series can be described thus: Kinase inhibition, dose-response. The series is classed as biochemical. The note with it: > 10: no inhibition at 10 µM, the highest dose tested. Here is the method:
as §1

Another series deals with CLK3 (Homo sapiens, UniProt P49761). The series can be described thus: Kinase inhibition, dose-response. The note with it: > 10: no inhibition at 10 µM, the highest dose tested. It counts as biochemical. Here is the method: as §1
Sequence of CLK3 (P49761 whole entry, species assumed): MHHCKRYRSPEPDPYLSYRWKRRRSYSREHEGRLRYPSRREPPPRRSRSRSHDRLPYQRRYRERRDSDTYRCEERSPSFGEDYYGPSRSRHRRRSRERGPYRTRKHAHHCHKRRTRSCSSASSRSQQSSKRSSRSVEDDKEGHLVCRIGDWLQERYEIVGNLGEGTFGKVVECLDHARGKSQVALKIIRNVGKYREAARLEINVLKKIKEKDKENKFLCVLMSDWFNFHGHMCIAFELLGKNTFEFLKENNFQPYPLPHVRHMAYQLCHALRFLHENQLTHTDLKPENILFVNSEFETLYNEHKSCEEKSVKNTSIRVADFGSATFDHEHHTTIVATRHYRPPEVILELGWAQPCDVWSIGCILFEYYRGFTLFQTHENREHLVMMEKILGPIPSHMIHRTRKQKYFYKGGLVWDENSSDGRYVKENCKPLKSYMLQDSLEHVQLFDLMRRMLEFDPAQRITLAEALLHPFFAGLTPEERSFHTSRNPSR
The target in another series is CK1δ (Homo sapiens, UniProt P48730). Description: Kinase inhibition, dose-response. It counts as biochemical. Conditions: > 10: no inhibition at 10 µM, the highest dose tested. Here is the method: as §1
Another series addresses DYRK1A (Homo sapiens, UniProt Q13627). The series can be described thus: Kinase inhibition, dose-response. The series is classed as biochemical. Conditions: > 10: no inhibition at 10 µM, the highest dose tested. Here is the method: as §1
A further series deals with CLK1 (Homo sapiens, UniProt P49759). Description: Kinase inhibition, dose-response. The series is classed as biochemical. The note with it: > 10: no inhibition at 10 µM, the highest dose tested. Here is the method:
as §1

The next series concerns the target CDK9 (Homo sapiens, UniProt P50750). Description: Kinase inhibition, dose-response. It counts as biochemical. Conditions: > 10: no inhibition at 10 µM, the highest dose tested. As for the experimental part:
as §1

The next series deals with CK1γ3 (Homo sapiens, UniProt Q9Y6M4). Description: Kinase inhibition, dose-response. The series is classed as biochemical. Conditions: > 10: no inhibition at 10 µM, the highest dose tested. Here is the method:
as §1

Another series deals with CK1γ2 (Homo sapiens, UniProt P78368). The series can be described thus: Kinase inhibition, dose-response. The note with it: > 10: no inhibition at 10 µM, the highest dose tested. It counts as biochemical. As for the experimental part: as §1
The next series addresses CK1γ1 (Homo sapiens, UniProt Q9HCP0). Description: Kinase inhibition, dose-response. The series is classed as biochemical. The note with it: > 10: no inhibition at 10 µM, the highest dose tested. As for the experimental part:
as §1

Another series addresses CLK4 (Homo sapiens, UniProt Q9HAZ1). The series can be described thus: Kinase inhibition, dose-response. It counts as biochemical. The text has this:
All compounds were additionally tested over a range of concentrations for their ability to inhibit a series of 14 kinases. […] Their F508del-CFTR activity is reported as percentage of F508del-CFTR activity in the presence of Trikafta alone (100%).

Another series in a line: LogD determined by HPLC. It counts as physicochemical.

Experimental findings from patent publication EP4268824A1 (Manros Therapeutics, priority 2022, dated 2023) are described below.

pIC50: −log10 of the molar value. Like-named read-outs stand apart in the source and are kept apart here.

Sequence of CDK7 (P50613 whole entry, species assumed): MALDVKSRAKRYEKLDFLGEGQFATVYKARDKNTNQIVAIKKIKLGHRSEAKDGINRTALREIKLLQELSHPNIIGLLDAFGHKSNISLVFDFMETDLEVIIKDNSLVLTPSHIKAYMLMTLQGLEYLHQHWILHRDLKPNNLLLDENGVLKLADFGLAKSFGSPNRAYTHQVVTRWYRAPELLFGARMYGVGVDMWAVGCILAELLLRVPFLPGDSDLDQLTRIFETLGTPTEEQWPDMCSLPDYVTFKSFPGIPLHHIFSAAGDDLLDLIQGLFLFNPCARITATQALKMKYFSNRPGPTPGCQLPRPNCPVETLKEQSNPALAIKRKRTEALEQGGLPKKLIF
Sequence of CDK7 (P51946 whole entry partner, species assumed): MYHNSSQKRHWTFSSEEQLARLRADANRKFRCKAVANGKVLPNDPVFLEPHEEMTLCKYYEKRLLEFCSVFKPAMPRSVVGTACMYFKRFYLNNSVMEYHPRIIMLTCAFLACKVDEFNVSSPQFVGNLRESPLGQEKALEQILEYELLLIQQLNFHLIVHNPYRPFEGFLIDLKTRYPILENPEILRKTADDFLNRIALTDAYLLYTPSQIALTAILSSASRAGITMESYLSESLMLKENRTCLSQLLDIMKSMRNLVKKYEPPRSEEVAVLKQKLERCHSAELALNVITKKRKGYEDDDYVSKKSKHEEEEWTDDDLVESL
Sequence of CDK7 (P51948 whole entry partner, species assumed): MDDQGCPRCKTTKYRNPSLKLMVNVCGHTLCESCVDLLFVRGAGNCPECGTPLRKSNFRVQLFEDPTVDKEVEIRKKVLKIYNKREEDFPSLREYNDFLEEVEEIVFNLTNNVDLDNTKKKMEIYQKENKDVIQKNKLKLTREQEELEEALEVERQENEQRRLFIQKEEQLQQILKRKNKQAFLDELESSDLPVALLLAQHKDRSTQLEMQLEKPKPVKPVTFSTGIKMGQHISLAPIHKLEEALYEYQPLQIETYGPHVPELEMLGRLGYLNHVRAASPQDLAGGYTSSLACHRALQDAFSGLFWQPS
Sequence of CLK4 (Q9HAZ1 whole entry, species assumed): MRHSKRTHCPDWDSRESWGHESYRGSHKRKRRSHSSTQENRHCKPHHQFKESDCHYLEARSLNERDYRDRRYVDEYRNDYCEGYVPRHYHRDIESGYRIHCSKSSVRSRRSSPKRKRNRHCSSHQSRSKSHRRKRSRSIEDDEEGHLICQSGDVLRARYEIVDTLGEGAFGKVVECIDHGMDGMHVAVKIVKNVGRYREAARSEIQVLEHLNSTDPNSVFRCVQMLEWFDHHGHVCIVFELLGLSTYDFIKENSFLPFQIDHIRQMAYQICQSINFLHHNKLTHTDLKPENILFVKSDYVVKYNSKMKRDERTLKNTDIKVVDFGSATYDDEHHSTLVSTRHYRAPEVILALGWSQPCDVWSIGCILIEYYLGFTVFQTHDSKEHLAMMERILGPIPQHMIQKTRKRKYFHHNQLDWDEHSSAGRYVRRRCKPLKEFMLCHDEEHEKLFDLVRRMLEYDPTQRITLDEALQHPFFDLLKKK
Sequence of CK1γ1 (Q9HCP0 whole entry): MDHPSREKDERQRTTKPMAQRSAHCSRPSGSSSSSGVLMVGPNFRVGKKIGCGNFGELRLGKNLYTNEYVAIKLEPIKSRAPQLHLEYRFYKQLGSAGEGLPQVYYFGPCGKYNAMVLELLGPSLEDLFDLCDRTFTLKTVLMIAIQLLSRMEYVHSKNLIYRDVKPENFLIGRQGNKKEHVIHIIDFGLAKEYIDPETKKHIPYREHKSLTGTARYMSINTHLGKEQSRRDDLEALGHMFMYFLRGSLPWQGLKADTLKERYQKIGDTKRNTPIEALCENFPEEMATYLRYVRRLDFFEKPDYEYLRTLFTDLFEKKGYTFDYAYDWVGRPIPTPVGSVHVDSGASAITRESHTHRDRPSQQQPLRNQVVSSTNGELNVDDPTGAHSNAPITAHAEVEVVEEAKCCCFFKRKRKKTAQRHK
T1 sequence (P13569 with tags, fused parts or gaps DEL508-508): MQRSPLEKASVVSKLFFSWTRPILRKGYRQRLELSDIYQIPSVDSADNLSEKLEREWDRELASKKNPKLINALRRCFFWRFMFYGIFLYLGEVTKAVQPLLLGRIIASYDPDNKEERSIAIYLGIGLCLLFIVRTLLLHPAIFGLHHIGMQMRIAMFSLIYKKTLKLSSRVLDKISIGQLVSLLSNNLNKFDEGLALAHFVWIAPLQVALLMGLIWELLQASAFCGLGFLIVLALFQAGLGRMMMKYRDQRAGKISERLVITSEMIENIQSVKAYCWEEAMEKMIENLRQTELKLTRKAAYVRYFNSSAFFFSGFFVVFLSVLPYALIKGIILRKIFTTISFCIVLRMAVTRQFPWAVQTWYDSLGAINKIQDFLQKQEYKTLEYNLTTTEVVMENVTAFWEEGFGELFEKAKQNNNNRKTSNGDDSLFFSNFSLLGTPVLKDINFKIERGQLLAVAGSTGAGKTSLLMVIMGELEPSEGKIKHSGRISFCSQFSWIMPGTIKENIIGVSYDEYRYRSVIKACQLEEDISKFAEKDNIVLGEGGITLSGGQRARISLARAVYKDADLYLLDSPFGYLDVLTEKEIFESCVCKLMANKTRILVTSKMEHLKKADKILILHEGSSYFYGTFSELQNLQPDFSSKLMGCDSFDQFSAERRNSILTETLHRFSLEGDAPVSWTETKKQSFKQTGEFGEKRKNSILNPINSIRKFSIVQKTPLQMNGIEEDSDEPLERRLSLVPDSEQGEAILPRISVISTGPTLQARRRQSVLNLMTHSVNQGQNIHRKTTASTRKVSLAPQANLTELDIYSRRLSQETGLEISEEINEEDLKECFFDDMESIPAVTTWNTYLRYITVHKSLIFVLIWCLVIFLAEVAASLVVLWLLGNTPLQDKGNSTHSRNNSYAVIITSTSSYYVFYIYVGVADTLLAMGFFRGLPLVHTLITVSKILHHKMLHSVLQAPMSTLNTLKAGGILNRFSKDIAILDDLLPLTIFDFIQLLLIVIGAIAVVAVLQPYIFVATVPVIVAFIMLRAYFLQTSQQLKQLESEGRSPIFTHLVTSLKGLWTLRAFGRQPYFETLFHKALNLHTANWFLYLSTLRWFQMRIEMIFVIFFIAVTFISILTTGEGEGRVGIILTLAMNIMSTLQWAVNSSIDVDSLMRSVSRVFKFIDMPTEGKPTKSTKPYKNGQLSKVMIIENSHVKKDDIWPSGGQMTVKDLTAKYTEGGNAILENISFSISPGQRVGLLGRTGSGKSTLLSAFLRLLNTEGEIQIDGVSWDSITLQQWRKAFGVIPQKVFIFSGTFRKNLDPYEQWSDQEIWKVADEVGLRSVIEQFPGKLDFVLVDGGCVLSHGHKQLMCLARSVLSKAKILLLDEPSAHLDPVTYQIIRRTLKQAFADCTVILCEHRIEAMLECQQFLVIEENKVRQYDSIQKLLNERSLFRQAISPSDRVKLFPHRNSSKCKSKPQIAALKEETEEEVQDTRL
Sequence of CK1γ3 (Q9Y6M4 whole entry): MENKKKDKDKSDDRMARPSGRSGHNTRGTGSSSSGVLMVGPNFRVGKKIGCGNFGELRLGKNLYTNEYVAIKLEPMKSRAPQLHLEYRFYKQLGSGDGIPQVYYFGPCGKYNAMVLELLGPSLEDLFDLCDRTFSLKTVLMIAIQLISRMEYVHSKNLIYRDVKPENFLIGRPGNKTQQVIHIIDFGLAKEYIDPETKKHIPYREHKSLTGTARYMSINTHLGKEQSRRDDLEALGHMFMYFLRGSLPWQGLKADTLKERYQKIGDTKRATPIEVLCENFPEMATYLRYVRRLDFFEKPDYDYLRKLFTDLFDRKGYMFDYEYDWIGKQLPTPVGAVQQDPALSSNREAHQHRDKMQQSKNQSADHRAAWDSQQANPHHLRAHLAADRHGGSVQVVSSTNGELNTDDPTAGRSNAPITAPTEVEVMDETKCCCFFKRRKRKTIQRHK

Take `CC(C)n1cnc2c(NCc3ccccc3)cc(N[C@@H]3CCOC3)nc21` [(A), reference compound]: the “F508del-CFTR activity ('inhibition shift' induced by CFTR-172) in reference to the CFTR activity induced by Trikafta® alone (value=100)” value is on record as 82.7 on F508del-CFTR (C 0.1 µM), 107.8 on F508del-CFTR (C 1 µM) and 114.5 at F508del-CFTR (C 10 µM).
For `CC(C)c1cnn2c(NCc3ccccc3)nc(N[C@@H]3CCOC3)nc12` [(C), reference compound] the same measures were 109.7, 99.5 and 116.1.
For `CC(C)c1cnn2c(NCc3ccccc3)cc(N[C@@H]3CCOC3)nc12` [(D), reference compound] the same measures were 98.0, 110.1 and 98.7.
Regarding `CC(C)c1cnc2c(NCc3ccccc3)nc(N[C@@H]3CCOC3)nn12` [compound 19, N4-Benzyl-7-isopropyl-N2-[(3R)-tetrahydrofuran-3-yl]imidazo[2,1-f][1,2,4]triazine-2,4-diamine], the pIC50 is 5.89 on CDK2; 5.98 at CLK2; 5.88 against CK1ε; < 5.00 on CK1α1; 6.30 against CDK7; < 5.00 on CLK3. Further, the negative-log IC50 (pIC50) at CK1δ was 6.23; against DYRK1A, < 5.00; at CLK1, 5.93; against CDK9, 5.50; at CK1γ3, < 5.00; against CK1γ2, < 5.00. For the same compound, the negative logarithm of the IC50 (pIC50) was < 5.00 against CK1γ1 and 5.74 at CLK4 (> 10: no inhibition at 10 µM, the highest dose tested, read-out: IC50 CLK4). Further, the figures for the “F508del-CFTR activity as percentage of F508del-CFTR activity in the presence of Trikafta alone (100%)” value at F508del-CFTR (concentration 0.1 µM), at F508del-CFTR (concentration 1 µM) and on F508del-CFTR (concentration 10 µM) were 112.0%, 122.2% and 155.6%, respectively.
As for `CC(C)c1cnc2c(N(C)Cc3ccccc3)nc(N[C@@H]3CCOC3)nn12` [compound 32], the negative logarithm of the IC50 (pIC50) on CDK2, against CLK2, at CK1ε, at CK1α1, at CDK7 and against CLK3 was < 5.00 each time. Also, the pIC50 against CK1δ, against DYRK1A, against CLK1, on CDK9, against CK1γ3 and on CK1γ2 was < 5.00 throughout. Also, the pIC50 against CK1γ1 was < 5.00; on CLK4 (read-out: IC50 CLK4, > 10: no inhibition at 10 µM, the highest dose tested), < 5.00. In addition, the results for the “F508del-CFTR activity as percentage of F508del-CFTR activity in the presence of Trikafta alone (100%)” value at F508del-CFTR (concentration 0.1 µM), on F508del-CFTR (concentration 1 µM) and on F508del-CFTR (concentration 10 µM) were 117.9%, 113.7% and 135.1%, respectively.
Turning to `CC(C)c1cnc2c(NCc3ccccc3)nc(NC3CCOCC3)nn12` [compound 44], the pIC50 against CDK2 is 6.24; against CLK2, 6.31; against CK1ε, 5.76; against CK1α1, < 5.00; against CDK7 it was 6.68; on CLK3, < 5.00. The pIC50 is 6.20 on CK1δ; 5.19 at DYRK1A; 6.27 at CLK1; 5.93 at CDK9; < 5.00 against CK1γ3; < 5.00 against CK1γ2. For the same compound, the pIC50 against CK1γ1 was < 5.00; on CLK4, 6.24.
As for `CC(C)c1cnc2c(NCc3ccccc3)nc(Nc3ccnn3C)nn12` [compound 107, N4-Benzyl-7-isopropyl-N2-(2-methylpyrazol-3-yl)imidazo[2,1-f][1,2,4]triazine-2,4-diamine], the “F508del-CFTR activation with diluted Trikafta®” value at F508del-CFTR (Trikafta® 100%, 33% or 11%, absence or presence of 1 µM compound, FIG 3) is reported as “compensates the dilution of Trikafta®”. The same compound had a chromatographic logD in the series “LogD determined by HPLC” of 2.98.
In turn, `CC(C)c1cnc2c(NCc3ccccc3)nc(NCc3ccncc3)nn12` [compound 125, N4-Benzyl-7-isopropyl-N2-(4-pyridylmethyl)imidazo[2,1-f][1,2,4]triazine-2,4-diamine] returned a chromatographic logD in “LogD determined by HPLC” of 3.07.
Same read-out and setting: for `Cc1cnc(CNc2nc(NCc3ccccc3)c3ncc(C(C)C)n3n2)cn1` [compound 126] the value was 3; for `Cc1cc(C)nc(CNc2nc(NCc3ccccc3)c3ncc(C(C)C)n3n2)n1` [compound 127, N4-Benzyl-N2-[(4,6-dimethylpyrimidin-2-yl)methyl]-7-isopropyl-imidazo[2,1-f][1,2,4]triazine-2,4-diamine], 3.28.

Usually pIC50 stands for the IC50 on a negative log10 scale, so that one unit is a factor of ten. One may read the chromatographic logD as lipophilicity estimated from chromatographic retention. A high value points to a more lipophilic compound.
